According to patent EP4653445A1, “CDK INHIBITOR AND CRYSTAL FORM OF PHARMACEUTICALLY ACCEPTABLE SALT THEREOF, AND USE THEREOF” (CSPC Zhongqi Pharmaceutical Technology (Shijiazhuang) Co., …, priority 2023, dated 2024):

Legend:
[1] = Dynamic vapor sorption (DVS) test; type: physicochemical; details: DVS
Protocol: • Instrument: TA Instruments Q5000 SA • Detection method: 20 to 50 mg of the sample was placed in a tared sample basket and automatically weighed, and DVS testing was performed according to the parameters in Table 7: Step Time: 60 min; Equilibration Time per RH%: 1 hour; Total Gas Flow Rate: 200 sccm; Gradient mode: 0%-90%-0% humidity variation, with a humidity variation amount of 10% for each gradient level between 0% and 90%, and gradient endpoint was determined by dm/dt < 0.01% maintained for 10 minutes.

[2] = Stability test, samples placed open for 7 days (HPLC and XRPD); type: physicochemical; details: for XRPD-7days / Purity (Peak area%) 7 days: open
Text: Subsequently, the samples after 7 days were respectively detected by HPLC and XRPD to determine their chemical and physical stabilities.

[3] = Grinding or crushing of the crystalline form; type: physicochemical
Text: Table 28 Results of Stability Test

[4] = Stress testing (high temperature, high humidity, illumination); type: physicochemical
[5] = Accelerated stability testing; type: physicochemical; details: 40°C±2°C/75%±5%RH, simulated commercial packaging
[6] = Long-term stability testing; type: physicochemical; details: 25°C±2°C/60%±5%RH, simulated commercial packaging
[7] = Stability test, samples placed open for 7 days (HPLC and XRPD); type: physicochemical; details: HPLC
[8] = Solubility comparison in water, SGF, FaSSIF and FeSSIF (HPLC of filtrates, XRPD of filter cakes); details: SGF, time not stated
[9] = High Humidity (92.5% RH), 7 days
[10] = High Humidity (92.5% RH), 14 days
[11] = High Humidity (92.5% RH), 30 days
[12] = High Temperature (60°C), 7 days
[13] = High Temperature (60°C), 14 days
[14] = High Temperature (60°C), 30 days
[15] = Illumination Testing 4500lx±500lx, 7 days
[16] = Illumination Testing 4500lx±500lx, 14 days
[17] = Illumination Testing 4500lx±500lx, 30 days

## CC(=O)c1c(C)c2cnc(Nc3ccc4c(c3)OC[C@@H]3CN(C5CCN(C)CC5)CCN43)nc2n(C2CCCC2)c1=O [crystalline form A-I of the free base of compound A]
[1]; 0%-90% RH
  hygroscopic properties: non-hygroscopic
[1]; across 0%-90% RH
  weight change: approximately 0.17%
[2]; 40°C /75%RH
  XRPD-7days: Unchanged
[2]; 40°C /75%RH, HPLC
  Purity (Peak area%) 7 days: 99.20 Peak area%
[2]; 60 °C, 92.5% RH and 40 °C/75% RH for 7 days, HPLC
  chemical stability: chemically stable
[2]; 60°C
  XRPD-7days: Unchanged
[2]; 60°C, HPLC
  Purity (Peak area%) 7 days: 99.24 Peak area%
[2]; 92.5%RH
  XRPD-7days: Unchanged
[2]; 92.5%RH, HPLC
  Purity (Peak area%) 7 days: 99.24 Peak area%
[2]; under the three conditions 60 °C, 92.5% RH and 40 °C/75% RH
  crystalline form (XRPD) after 7 days: remained unchanged
[3]
  crystalline form after grinding or crushing: remained unchanged
[4]; 0 Day
  Content (%): 99.5%
  Description Appearance: Yellow solid
  Total impurities (%): 0.84%
  crystalline form: crystalline form A-I of free base
  loss on drying (%): 0.03%
[4]; [9]
  Content (%): 100.2%
  Description Appearance: Yellow solid
  Hygroscopic weight gain (%): 0.03%
  Total impurities (%): 0.76%
  loss on drying (%): 0.06%
[4]; [10]
  Content (%): 99.6%
  Description Appearance: Yellow solid
  Hygroscopic weight gain (%): 0.05%
  Total impurities (%): 0.78%
  loss on drying (%): 0.07%
[4]; [11]
  Content (%): 101.0%
  Description Appearance: Yellow solid
  Hygroscopic weight gain (%): 0.09%
  Total impurities (%): 0.87%
  crystalline form: Unchanged
  loss on drying (%): 0.05%
[4]; [12]
  Content (%): 100.4%
  Description Appearance: Yellow solid
  Total impurities (%): 0.76%
  loss on drying (%): 0.05%
[4]; [13]
  Content (%): 100.6%
  Description Appearance: Yellow solid
  Total impurities (%): 0.83%
  loss on drying (%): 0.05%
[4]; [14]
  Content (%): 100.1%
  Description Appearance: Yellow solid
  Total impurities (%): 0.81%
  crystalline form: Unchanged
  loss on drying (%): 0.03%
[4]; [15]
  Content (%): 101.0%
  Description Appearance: Yellow solid
  Total impurities (%): 0.76%
  loss on drying (%): 0.07%
[4]; [16]
  Content (%): 100.2%
  Description Appearance: Yellow solid
  Total impurities (%): 0.79%
  loss on drying (%): 0.06%
[4]; [17]
  Content (%): 100.2%
  Description Appearance: Yellow solid
  Total impurities (%): 0.84%
  crystalline form: Unchanged
  loss on drying (%): 0.07%
[4]; high temperature, high humidity and illumination conditions
  stability in stress testing (conclusion): good stability
[4]; illuminance 4500 lx±500 lx, total not less than 1.2×10^6 lux·hr, near-UV not less than 200 W·hr/m^2
  stability under illumination: relatively stable
[5]; 6 months
  description, loss on drying, relevant substances, crystalline form and content compared with 0 month: basically the same
  Description Appearance: Yellow solid
  Measured content (%): 100.9%
  Total impurities (%): 0.77%
  crystalline form: Unchanged
  loss on drying (%): 0.08%
[5]; 0 months
  Description Appearance: Yellow solid
  Measured content (%): 99.5%
  Total impurities (%): 0.84%
  crystalline form: crystalline form A-I of free base
  loss on drying (%): 0.03%
[5]; 1 month
  Description Appearance: Yellow solid
  Measured content (%): 100.4%
  Total impurities (%): 0.80%
  loss on drying (%): 0.04%
[5]; 2 months
  Description Appearance: Yellow solid
  Measured content (%): 100.8%
  Total impurities (%): 0.82%
  loss on drying (%): 0.02%
[5]; 3 months
  Description Appearance: Yellow solid
  Measured content (%): 100.6%
  Total impurities (%): 0.85%
  crystalline form: Unchanged
  loss on drying (%): 0.02%
[6]; 18 months
  description, loss on drying, relevant substances, crystalline form and content compared with 0 month: basically the same
  Description Appearance: Yellow solid
  Measured content (%): 98.7%
  Total impurities (%): 0.71%
  crystalline form: Unchanged
  loss on drying (%): 0.03%
[6]; 0 months
  Description Appearance: Yellow solid
  Measured content (%): 99.5%
  Total impurities (%): 0.84%
  crystalline form: crystalline form A-I of free base
  loss on drying (%): 0.03%
[6]; 3 months
  Description Appearance: Yellow solid
  Measured content (%): 100.8%
  Total impurities (%): 0.89%
  crystalline form: Unchanged
  loss on drying (%): 0.02%
[6]; 6 months
  Description Appearance: Yellow solid
  Measured content (%): 100.6%
  Total impurities (%): 0.75%
  crystalline form: Unchanged
  loss on drying (%): 0.05%
[6]; 9 months
  Description Appearance: Yellow solid
  Measured content (%): 99.6%
  Total impurities (%): 0.73%
  crystalline form: Unchanged
  loss on drying (%): 0.05%
[6]; 12 months
  Description Appearance: Yellow solid
  Measured content (%): 100.8%
  Total impurities (%): 0.78%
  crystalline form: Unchanged
  loss on drying (%): 0.05%
[7]
  Purity (Peak area%) 0 day: 99.16 Peak area%
[8]
  solubility in SGF: more than 5 mg/mL
